The results in this text go back to patent US20240365773A1, “USE OF APOPTOSIS INHIBITORS FOR COLD STORAGE OF BLOOD PLATELETS” (DRK-BLUTSPENDEDIENST BADEN-WUERTTEMBERG-HESSEN GGMBH, priority 2021, published 2024).

Structures are written as SMILES. “Also recorded” adds a separate entry of the source. Peptide text beside a SMILES is read from it. * marks the point of attachment. Cbz = O=C(OCc1ccccc1)*; CH2F = FC*

What all share (assay type): cell-based, human
The test system of experiment [1] is cold-stored PLTs. The experiment in a line: Platelet adhesion on fibrinogen coated coverslips. The following applies: for Number of adherent cells (day 4) / Number of adherent cells (day 7): cold-stored PLTs, TRAP; for Number of adherent cells (day 4): day 4, fibrinogen coated coverslips; for Number of adherent cells (day 7): day 7, fibrinogen coated coverslips. The method, then:
Coverslips (Corning, New York, USA) were coated with […] of fibrinogen (Sigma Aldrich, Munich, Germany). After 4 and 7 days of storage PLTs (1×10^8 PLTs/mL) were seeded on coverslips and incubated for 1 hour at room temperature (RT) with TRAP (0.1 mM, Hart Biologicals, Hartlepool, UK). The adherent cells were fixed with 4% paraformaldehyde for 20 minutes (min) at RT. Images were captured from 5 different microscopic fields/coverslips (×100, Olympus IX73, Tokyo, Japan).

The subject of experiment [2] is PLTs of 4° C. stored APCs. The experiment in a line: PLT viability of cold stored APCs treated with apoptosis inhibitors. As to conditions: for % PLT viability (day 10): 4° C. stored APC; for % viable cells: APCs stored at 4° C., G04 150 μM, forskolin 0.75 μM. The method, then:
(§1) APCs were collected from healthy volunteers according to the German guidelines for haemotherapy. Ten individuals donated two units of APCs collected with FENWAL AMICUS (Amicus, Fresenius Kabi, Bad Homburg, Germany) and stored in plasma or in PAS (SSP+, Macopharma, Langen, Germany) at 35% final plasma concentration at 4° C. and RT.
(§2) Appropriate concentration for the inhibitors was determined prior to experiments, by titrating different concentrations. Directly after the collection, the APCs were stored for an hour without agitation. APCs were split further into different culture bags under aseptic conditions and stored in sterile, oxygen permeable bag (Fresenius Kabi A G, Bad Homburg, Germany). APCs were treated with 150 μM RhoA inhibitor G04, 0.75 μM […] (PKA) activator forskolin or 40 μM Caspase-9 inhibitor z-LEHD-fmk. […] APCs without any additions were used as a negative control. After 2 hours of treatment at RT, all the samples except the control at RT, were stored at 4° C. under constant gentle agitation. All samples were activated with thrombin receptor-activating peptide TRAP ([…], HART Biologicals) prior to measurements.

The test system of a further experiment is PLTs from APCs. The experiment in a line: Determination of apoptosis (Annexin V-FITC staining). As to conditions: for % Apoptosis (day 10): 4° C. stored APC; for % apoptotic cells: APCs stored at 4° C., forskolin 0.75 μM, z-LEHD-fmk 40 μM. The procedure: as §1, §2
PLTs from APCs were washed, resuspended with 1 mM CaCl2 and stained with Annexin V-FITC (Beckman Coulter) for 60 min at RT. Freshly isolated PLTs were incubated with 10 μM ionomycin (Abcam, Cambridge, UK) and used as positive control.

Experiment [3] relates to PLTs of 4° C. stored APCs. The experiment in a line: Measurement of mitochondrial transmembrane potential. The following applies: APCs stored at 4° C. The method, then:
as §1, §2

The test system of experiment [4] is PLTs of 4° C. stored APCs. The experiment in a line: Platelet aggregation (light transmission PLT aggregation assay). As to conditions: for % PLT aggregation (day 7): 4° C. stored APC. The procedure:
as §1, §2
PLT function was analyzed by FC and light transmission PLT aggregation assay (LTA) using a 4-channel-aggregometer (Labitec, Ahrensburg, Germany). Collagen (8 μg/ml), ristocetin ([…]) (both Molab, Langenfeld, Germany) or ADP (80 μM, Nycomed, Konstanz, Germany) were used as inductors.

For experiment [5], the system named is cold-stored PLTs. The experiment in a line: Clot formation (thromboelastometer). The following applies: vs buffer/untreated. The procedure:
The clot formation was analysed using a 6-channel thromboelastometer device (Clot Pro, Enicor, Germany) and parameters were automatically calculated by dedicated software.

Experiment [6] relates to cold-stored PLTs. The experiment in a line: Thrombin generation (calibrated automated thrombogram). As to conditions: each storage time point, vs buffer/untreated. The method, then: Thrombin generation was quantified performing a fluorescence based-assay using a calibrated automated thrombogram system (CAT, Stago, Maastricht, Netherlands). The fluorescence signal was acquired for 60 min with a 390-nm […] excitation/460-nm emission filter set.

The test system of experiment [7] is PLTs of 4° C. stored APCs. In words: Functional analysis of cold stored APCs (all functional parameters). As to conditions: treated vs untreated. The method, then:
PLTs (10×10^6/mL) were incubated with TRAP6 (20 μM) for 30 min at 37° C., fixed with 4% PFA for 20 min at RT. The expression of CD62P (CLBThromb/6, Beckman Coulter) and CD63 (CLBGran/12, Beckman Coulter) was determined by FC. The conformational changes of glycoproteins (GPs) IIb/IIIa complex upon activation with TRAP were detected by PAC-1-antibody (BD Bioscience) using FC. PLT function was analyzed by FC and light transmission PLT aggregation assay (LTA) using a 4-channel-aggregometer (Labitec, Ahrensburg, Germany). Collagen (8 μg/ml), ristocetin ([…]) (both Molab, Langenfeld, Germany) or ADP (80 μM, Nycomed, Konstanz, Germany) were used as inductors.

On to `C=C[C@@]1(C)CC(=O)[C@]2(O)[C@@]3(C)[C@@H](O)CCC(C)(C)[C@@H]3[C@H](O)[C@H](OC(C)=O)[C@@]2(C)O1` [forskolin], for which the “Number of adherent cells (day 4)” value in the experiment with cold-stored PLTs [1] was “No significant effect”. The “Number of adherent cells (day 7)” value in the experiment on cold-stored PLTs [1] was “No significant effect”. In addition, the “% PLT viability (day 10)” value in experiment [2] (day 10) is recorded as 58.95%. In addition, the “% viable cells” value in experiment [2] (day 7) came to 87.1%; in experiment [2] (day 10, z-LEHD-fmk 40 μM), 58.95%. Moreover, the “% Apoptosis (day 10)” value in the experiment with PLTs from APCs (day 10) stood at 33%. Also, the “% apoptotic cells” value in the experiment with PLTs from APCs (day 7) is reported as 9.3%; with PLTs from APCs (day 10, G04 150 μM) it was 33%. In addition, the “mitochondrial transmembrane potential ΔΨm MFI” value was determined as 17.88 MFI in experiment [3] (day 7) and 11.02 MFI in experiment [3] (day 10). In experiment [4], the “% PLT aggregation (day 7)” value was “No significant effect”.
Turning to `COC(=O)CC[C@H](NC(=O)[C@H](CC(C)C)NC(=O)OCc1ccccc1)C(=O)N[C@@H](Cc1cnc[nH]1)C(=O)N[C@@H](CC(=O)OC)C(=O)CF` [z-LEHD-fmk] (Cbz-LE(OMe)HD(OMe)-CH2F), the “PLT adhesion, number of adherent cells (in words)” value with cold-stored PLTs [1] (cold-stored PLTs after 4 and 7 days of storage, vs buffer/untreated) is “no significant impact”. Moreover, in the experiment on cold-stored PLTs [1], the “Number of adherent cells (day 4)” value is listed as “No significant effect” and the “Number of adherent cells (day 7)” value was “No significant effect”. In addition, in experiment [2] (day 10), the “% PLT viability (day 10)” value amounted to 60.38%. Further, the “% viable cells” value in experiment [2] (day 10, z-LEHD-fmk 40 μM) is given as 60.38%. The “PLT viability / survival (in words)” value in experiment [2] (cold stored APCs) was “partially restores PLT viability”. Moreover, the “clot formation (MCF, maximum clot firmness), in words” value with cold-stored PLTs [5] is given as “no significant impact”. Further, in the experiment with cold-stored PLTs [6], the “thrombin generation (AUC, area under the curve), in words” value is given as “no significant impact”. In addition, in the experiment on PLTs from APCs (day 10), the “% Apoptosis (day 10)” value worked out at 39%. Moreover, the “% apoptotic cells” value with PLTs from APCs (day 7) is on record as 9.85%. In addition, in the experiment on PLTs from APCs (day 10, G04 150 μM), the “% apoptotic cells” value came to 39.00%. The “apoptosis (in words)” value with PLTs from APCs (cold stored APCs) is listed as “decreases apoptosis”. Moreover, the “mitochondrial transmembrane potential ΔΨm MFI” value in experiment [3] (day 10) is 6.26 MFI. The “PLT functions / functional parameters (overall, in words)” value in experiment [7] is “no significant impact; also recorded: does not affect the diminished PLT function; also recorded: does not affect PLT functions”. The “% PLT aggregation (day 7)” value in experiment [4] is on record as “No significant effect”. For the same compound, the “PLT aggregation (in words)” value in experiment [4] (cold stored APCs, day 4) was “tendency of decreased PLT aggregation was observed at day 4 after the treatment, but it was not significant”.
